According to patent US20250087329A1, “PERSONALISED RECOMMENDED DAILY INTAKE FOR NUTRIENTS BASED ON INDIVIDUAL GENETIC RISK SCORES” (SOCIETE DES PRODUITS NESTLE S.A., priority 2021, published 2025):

Assay: Dose-response algorithm for vitamin B12 including polygenic risk score effects (Arivale cohort)
Set-up: species or system human
Details: 14-18 risk alleles vs 0-4 risk alleles
Protocol: A linear regression was performed for the selected SNPs against vitamin B12 in the Arivale cohort. The Arivale cohort consists of individuals over 18 years of age who between 2015 and 2019 self-enrolled in a now closed scientific wellness company. Briefly, majority of Arivale participants (˜80%) were residents of Washington or California when in the program (for further information on the Arivale cohort see Wilmanski et al. 2021). Methyl-malonic acid (MMA) was measured as a biomarker for blood B12 concentrations. MMA is inversely correlated with vitamin B12 blood levels. The distribution of the PRS was normally distributed and the average increase in MMA per risk allele was 3.4 units (Table 5) corresponding to a decrease of approximately […] vitamin B12 (cobalamin) per risk allele.
To estimate individual vitamin B12 intake needs, a genetic term that sums the effects of all risk alleles present in an individual was added to the dose-response model in the form: […]

Row | Molecule | intake needed by highest risk score group relative to low risk group to reach the same blood levels
1 | cobalamin [vitamin B12] | five times

Same assay, conditions: sufficiency for 97% of the high risk group

Row | Molecule | daily vitamin B12 intake needed for vitamin B12 sufficiency
2 | cobalamin [vitamin B12] | higher than 1500 mcg/day

Assay: not given
Details: Person; daily intake; cited from earlier work

Row | Molecule | UL (tolerable upper intake level) [mg]
3 | [Ca+2] [Calcium] | 2500
4 | Cl [Chloride] | 3600
5 | C[N+](C)(C)CCO [Choline] | 3500
6 | F [Fluoride] | 10
7 | [Mg+2] [Magnesium] | 350
8 | [Mn+2] [Manganese] | 11
9 | O=C(O)c1cccnc1 [Niacin (B3), Niacin] | 35
10 | [P] [Phosphorus] | 4000
11 | [Se] [Selenium] | 0.4
12 | [Na] [Sodium] | 2300
13 | [Zn] [Zinc] | 40
14 | Cc1c(C)c2c(c(C)c1O)CC[C@@](C)(CCC[C@H](C)CCC[C@H](C)CCCC(C)C)O2 [α-tocopherol (Vitamin E), α-tocopherol] | 1000
